Results as given in article PMC12040169 (PLOS Biology, 2025).

Experiment: in vitro
Details: human, hela cells, % viability

Structure (SMILES) | viability at 28.5 h, 10 µM | viability at 28.5 h, 10 µM (bulk resorufin, single well)
Oc1nccc(Oc2ccnc(Cl)n2)n1 [CBK000010] | 98.5% | –
CCN(c1cc(N2CCCNCC2)ccc1NS(=O)(=O)c1cccc2cccnc12)S(C)(=O)=O [CBK000014C] | 80.1% | –
OCCOc1cccc(-c2nnco2)c1 [CBK000033] | 98.6% | –
COC(=O)c1cc(=O)c2ccccc2o1 [CBK000064] | 91.8% | –
Cc1cccc2[nH]c(-c3ccccc3)nc12 [CBK000110] | 92.9% | –
COc1ccc(Cc2n[nH]c(=O)n2-c2ccccc2)cc1 [CBK000112] | 107% | –
COc1ccc(-c2nc3cc(OC)ccc3[nH]2)cc1 [CBK000126] | 90.5% | –
CC(C)(C)OC(=O)N1CCN(c2ccc([N+](=O)[O-])cn2)CC1 [CBK000134] | 95.6% | –
CC(C)(C)OC(=O)N1CCN(c2ncc([N+](=O)[O-])s2)CC1 [CBK000135] | 92.1% | –
CC(C)(C)OC(=O)N1CCN(c2cc(NCc3ccccc3)ncn2)CC1 [CBK000137] | 94.7% | –
O=C(Nc1ccc(-c2ccoc2)cc1C(=O)O)OCc1ccc([N+](=O)[O-])cc1 [CBK000141D] | 98.9% | –
Fc1cccc(N2CCN(Cc3ccccc3)CC2)n1 [CBK000144] | 102% | –
Fc1cccc(NCc2ccccc2)n1 [CBK000149] | 94.9% | –
CC(C)(C)OC(=O)N1CCN(c2cncc(NCc3ccccc3)n2)CC1 [CBK000154] | 112% | –
Cc1ccc(NC(=O)c2cccnc2)c(C(=O)O)c1 [CBK000177] | 103% | –
O=C(O)CCn1c2ccccc2c2ccccc21 [CBK000208] | 87.7% | –
c1ccc2c(c1)CC(Oc1cncc(N3CCNCC3)n1)C2 [CBK000242G] | 106% | –
O=C(O)CCCCn1c2c(c3ccccc31)CCCC2 [CBK000253] | 98.9% | –
Cc1nn(C)c(Oc2ccc3c(c2)CCCC3)c1[N+](=O)[O-] [CBK000273] | 91.2% | –
Cc1ccc(Oc2c([N+](=O)[O-])c(C)nn2C)c(Br)c1 [CBK000283] | 90.6% | –
CN(Cc1ccccc1)c1nc(C(F)(F)F)cc(=O)[nH]1 [CBK000319] | 92% | –
Oc1cc(C(F)(F)F)nc(N2CCc3ccccc3C2)n1 [CBK000344] | 82% | –
CC(=O)Nc1ccc(S(=O)(=O)Nc2ccnc(N3CCNCC3)n2)cc1 [CBK000363C] | 92.5% | –

Structure (SMILES) | viability at 28.5 h, 10 µM | viability at 28.5 h, 10 µM (bulk resorufin, single well)
COc1ccc(OC)c(-c2ccc(NC(=O)c3ccc(Cl)cc3Cl)c(C(=O)O)c2)c1 [CBK000393D] | 90.8% | –
COC(=O)c1cc(-c2ccccc2OCc2ccccc2)ccc1NC(=O)c1ccc(Cl)cc1Cl [CBK000415] | 88.5% | –
COC(=O)c1cccc2c3c([nH]c12)CCCC3 [CBK000423] | 87.8% | –
CC(C)(CN)CN(Cc1ccc(Cl)cc1Cl)C(=O)NCCc1c[nH]c2ccccc12 [CBK000460C] | 89.4% | –
CC(NC(=O)N(Cc1cccc2ccccc12)C1CCC(N)CC1)c1cccc2ccccc12 (centres unmarked) [CBK000482C] | 67.8% | –
CC(=O)Oc1cc(C(F)(F)F)nc(NCc2ccc(Cl)cc2)n1 [CBK000500] | 94.7% | –
Oc1cc(C(F)(F)F)nc(Nc2ccccc2)n1 [CBK000517] | 89.3% | –
CC(C)(C)OC(=O)NCc1ccc2cccc(OCCO)c2n1 [CBK000585] | 83.3% | –
O=[N+]([O-])c1ccc(F)cc1NS(=O)(=O)c1ccccc1 [CBK000674] | 93.1% | –
NCCC(=O)N(CCc1cc(C(F)(F)F)cc(C(F)(F)F)c1)c1cccc2ccccc12 [CBK000695T] | 0% | –
NCCN(C(=O)CCc1cc(C(F)(F)F)cc(C(F)(F)F)c1)c1ccc2c(c1)OCO2 [CBK000701T] | 105% | –
CSc1nccc(OCCOc2nccnc2N2CCNCC2)n1 [CBK000718G] | 104% | –
N#Cc1ccc(OCCO)cc1 [CBK000723] | 107% | –
O=C(c1ccccc1)c1ccccc1OCCO [CBK000728] | 116% | –
COC(=O)Cc1nc(NS(=O)(=O)c2ccc(Oc3cccc(Cl)c3C#N)cc2)sc1C [CBK000744] | 98.3% | –
CCOC(=O)c1sc(NS(=O)(=O)c2cccc(Cl)c2C)nc1-c1ccccc1 [CBK000749] | 92.7% | –
COc1ccc(-n2nc(C)c3onc(C)c3c2=O)cc1 [CBK000853] | 101% | –
Cc1c(C)n(CC(=O)O)c2ccccc12 [CBK000884] | 97% | –
CCOC(=O)Cc1csc(NS(=O)(=O)c2cn(C)cn2)n1 [CBK000888] | 112% | –
Cc1cc(Cl)cc(Cl)c1S(=O)(=O)Nc1nc(-c2cccc([N+](=O)[O-])c2)cs1 [CBK000902] | 111% | –
CCn1nc(-c2ccccc2)nc2c(=O)n(C)c(=O)nc1-2 [CBK000921] | – | 92.1%
CCCc1ccc(S(=O)(=O)Nc2nc(-c3cccc([N+](=O)[O-])c3)cs2)cc1 [CBK000987] | 88.1% | –
CCc1csc(C(=Cc2ccc(OC)cc2)C(N)=O)n1 [CBK001010] | 86.9% | –

Structure (SMILES) | viability at 28.5 h, 10 µM | viability at 28.5 h, 10 µM (bulk resorufin, single well)
COc1ccc(CCCCN(C(=O)C(N)Cc2ccccc2)c2cccc3ccccc23)cc1OC (centres unmarked) [CBK001032T] | 118% | –
CNCC(=O)N(CCc1cc(C(F)(F)F)cc(C(F)(F)F)c1)c1ccc2c(c1)OCO2 [CBK001038T] | 120% | –
CCOC(=O)CCC(=O)n1c2ccccc2c2ccccc21 [CBK001170] | 67.2% | –
O=C(CN1CCOCC1)Nc1ccc(S(=O)(=O)Nc2cc(Cl)cc(Cl)c2)cc1 [CBK001239] | 89.1% | –
O=[N+]([O-])c1cc(S(=O)(=O)Nc2ccccc2)ccc1N1CCN2CCCC2C1 (centres unmarked) [CBK001248] | 87.7% | –
O=C(O)c1ccc2[nH]c3c(c2c1)CCCC3 [CBK001252] | 90.9% | –
COc1cccc2cc(C3CN(C(=O)C(C)(C)NC(=O)OC(C)(C)C)CC3C(=O)O)oc12 (centres unmarked) [CBK001348] | 102% | –
CN(c1cc(F)ccc1[N+](=O)[O-])S(C)(=O)=O [CBK001365] | 82.1% | –
CC1CCN(c2ccc([N+](=O)[O-])c(N3CCC(C)CC3)c2)CC1 [CBK001367] | 92.5% | –
CN(c1cc(F)ccc1[N+](=O)[O-])S(=O)(=O)c1ccccc1 [CBK001369] | 97.5% | –
CSc1nc(O)cc(C(F)(F)F)n1 [CBK001401] | 112% | –
N#Cc1ccccc1OCCO [CBK001443] | 97.9% | –
COCCOc1ncccc1OCc1ccccc1 [CBK001456] | 92.9% | –
CC(C)Oc1ncccc1OCc1ccccc1 [CBK001457] | 124% | –
Brc1ncccc1OCc1ccccc1 [CBK001458] | 82.6% | –
CCCOc1ncccc1O [CBK001459] | 89.7% | –
OCCOc1cccnc1OCC1CC1 [CBK001461] | 89.4% | –
Cc1nn(C)c(=O)c2c(C)noc12 [CBK001462] | 101% | –
CC(C)Oc1ncccc1OCCO [CBK001465] | 112% | –
Cc1ccc(S(=O)(=O)Nc2ccc(N3C[C@@H](C)N[C@@H](C)C3)c3ccccc23)cc1 [CBK001486C] | 87.8% | –
CC(N)c1cc2ccccc2o1 (centres unmarked) [CBK001492C] | – | 97.7%
CCNc1cc(N2CCN(C)CC2)ccc1NS(=O)(=O)c1ccc(F)cc1F [CBK001496C] | 95.8% | –
